The values below are quoted from earlier work in patent US20160243040A1, “Pharmaceutical Composition with Antiinflammatory Agents and Production Process” (LABORATORIO RAAM DE SAHUAYO, S.A. DE C.V., priority 2013, published 2016).

The conditions of data set [1]: relative potency, cortisol = 1.
The conditions of data set [2]: relative potency, cortisol = 1. This is another data set of the same source.
The conditions of data set [3]: class by biological half-life.
For data set [4] the following is noted: applies only to oral or intravenous use.

Each structure is given as a SMILES string.

As to `C[C@]12C=CC(=O)C=C1CC[C@@H]1[C@@H]2[C@@H](O)C[C@@]2(C)[C@H]1CC[C@]2(O)C(=O)CO` [Prednisolone], in data set [1], the “Potency to retain Na+” value was 0.8. For the same molecule, the Anti-inflammatory potency in data set [2] is on record as 4. For the same molecule, the Duration of action entry in data set [3] is “I (I, intermediate (Biological half-life of 12-36 h))”. In data set [4], the Dose equivalents is on record as 5 mg.

Regarding `O=C(O)COC(=O)Cc1ccccc1Nc1c(Cl)cccc1Cl` [aceclofenac, Aceclofenac], the “dose excreted in urine” value (mainly as aceclofenac glucuronide and diclofenac, and its hydroxy metabolites) was “Approximately 70%”. In addition, the “tmax in presence of food” value (oral, presence of food) is 3.5 h. For the same molecule, the tmax without food (oral, without food) was 2.0 h. For the same molecule, the elimination half-life (single dose of 100 mg) is 6.2 h.

As to `C[C@@H]1C[C@H]2[C@@H]3CCC4=CC(=O)C=C[C@]4(C)[C@@]3(F)[C@@H](O)C[C@]2(C)[C@@]1(O)C(=O)CO` [Dexamethasone], the Duration of action entry in data set [3] is recorded as “P (P, prolonged (Biological half-life of 36 to 72 h))”.

Consider `C[C@]12CCC(=O)C=C1CC[C@H]1[C@@H]3CC[C@](O)(C(=O)CO)[C@@]3(C)C[C@H](O)[C@@]12F` [Fludrocortisone], for which, in data set [3], the Duration of action entry is “I (I, intermediate (Biological half-life of 12-36 h))”.

`C[C@]12CCC(=O)C=C1CC[C@@H]1[C@@H]2C(=O)C[C@@]2(C)[C@H]1CC[C@]2(O)C(=O)CO` [Cortisone]: the “Potency to retain Na+” value in data set [1] is listed as 0.8. The Anti-inflammatory potency in data set [2] is given as 0.8. For the same molecule, the Duration of action entry in data set [3] is listed as “B (B, short (Biological half-life of 8-12 h))”. The Dose equivalents in data set [4] is 25 mg.

`C[C@H]1C[C@H]2[C@@H]3CCC4=CC(=O)C=C[C@]4(C)[C@@]3(F)[C@@H](O)C[C@]2(C)[C@@]1(O)C(=O)CO` [Betamethasone]: in data set [3], the Duration of action entry was “P (P, prolonged (Biological half-life of 36 to 72 h))”.

Regarding `C[C@]12CCC(=O)C=C1CC[C@@H]1[C@@H]2[C@@H](O)C[C@@]2(C)[C@H]1CC[C@]2(O)C(=O)CO` [Cortisol], the “Potency to retain Na+” value in data set [1] is given as 1. For the same molecule, the Anti-inflammatory potency in data set [2] is 1. Further, in data set [3], the Duration of action entry is reported as “B (B, short (Biological half-life of 8-12 h))”. Moreover, in data set [4], the Dose equivalents was 20 mg.

As for `C[C@]12C=CC(=O)C=C1CC[C@H]1[C@@H]3C[C@@H](O)[C@](O)(C(=O)CO)[C@@]3(C)C[C@H](O)[C@@]12F` [Tiamcinolone], in data set [1], the “Potency to retain Na+” value was 0. Also, the Anti-inflammatory potency in data set [2] is listed as 5. For the same molecule, the Duration of action result in data set [3] was “I (I, intermediate (Biological half-life of 12-36 h))”. The Dose equivalents in data set [4] is on record as 4 mg.

In the case of `C[C@H]1C[C@@H]2[C@H]([C@@H](O)C[C@@]3(C)[C@H]2CC[C@]3(O)C(=O)CO)[C@@]2(C)C=CC(=O)C=C12` [6α-methyl prednisolone], in data set [1], the “Potency to retain Na+” value is listed as 0.5. In addition, the Anti-inflammatory potency in data set [2] was 5. The Duration of action entry in data set [3] is on record as “I (I, intermediate (Biological half-life of 12-36 h))”. For the same molecule, the Dose equivalents in data set [4] is on record as 4 mg.
